Here are results for nine compounds from US11970470B1, “{5-chloro-2-(2-(3-(substitutedphenyl)-1,2,4-oxadiazol-5-yl)ethyl)phenyl}(phenyl)methanones as larvicidal agents” (KING FAISAL UNIVERSITY, priority 2023, dated 2024).

Data set [1] relates to Anopheles arabiensis. The data set can be described thus: Larvicidal screening (WHO protocol), 3rd instar larvae. In kind it is in vivo. The settings on record: for mortality at 4 µg/mL: 4 μg/mL. On the procedure:
Anopheles arabiensis was used in the study according to the protocol described by WHO (1975) guidelines in an insectary simulating the temperature (27.5° C.), humidity (70%), and lighting (12/12) of a malaria-endemic environment. One mL of test compound (1 mg/mL) was added to 1 mL of acetone and followed by […] of distilled water to obtain a final concentration of 4 μg/mL. Thirty individuals of 3rd instar larvae were introduced into a container. Negative control was set up using the solvent (acetone) and distilled water, and a positive control included Temephos, which is an active emulsified organophosphate larvicidal used by malaria control programs. Larval mortality was examined for each container separately for 24 h and fed specially made cat food that contained less oil/fat content. The percentage of mortality was determined relative to the initial number of larvae exposed.
Differences in larval mortality between treatments were assessed with generalized linear models using a quasi-Poisson link function. Anopheles arabiensis mortality was the dependent variable, while fixed effects were test compounds and observation period (24 and 48 h). A p-value<0.05 was considered statistically significant. Throughout the text, the results are presented as the adjusted mean±the standard error.

Setting [2] is: Anopheles arabiensis larvae exposed for 24 h, read-out: Mortality in % (Mean ± SEM) 24 h.
The mark [3] stands for this setting: Anopheles arabiensis larvae exposed for 48 h, read-out: Mortality in % (Mean ± SEM) 48 h.

Read-outs that look alike come from different tables or passages of the source.

A word on the melting point: it is the temperature, or range, at which the solid turns liquid. Take `O=C(c1ccccc1)c1cc(Cl)ccc1OCc1nc(-c2ccccc2)no1` [Compound 5a, {5-Chloro-2-[(3-(phenyl)-1,2,4-oxadiazol-5-yl)-methoxy]-phenyl}-(phenyl)-methanone]: the melting point lay in the range of 108 to 110 °C.
By mortality is commonly meant the percentage killed. Take `O=C(c1ccccc1)c1cc(Cl)ccc1OCc1nc(-c2ccc(F)cc2)no1` [Compound 5b, {5-Chloro-2-[(3-(4-fluorophenyl)-1,2,4-oxadiazol-5-yl)-methoxy]-phenyl}-(phenyl)-methanone]: the mortality at 4 µg/mL in data set [1] (setting [2]) is 91.7 ± 1.61%; in data set [1] (setting [3]), 94.7 ± 1.9%.
Regarding `O=C(c1ccccc1)c1cc(Cl)ccc1OCc1nc(-c2ccc(I)cc2)no1` [Compound 5c, {5-chloro-2-[(3-(4-iodophenyl)-1,2,4-oxadiazol-5-yl)-methoxy]-phenyl}-(phenyl)-methanone], the melting point was in the range of 124 to 126 °C.
For `Cc1cc(F)c(-c2noc(COc3ccc(Cl)cc3C(=O)c3ccccc3)n2)cc1F` [Compound 5d, {5-Chloro-2-[(3-(2,5-difluoro-4-methylphenyl)-1,2,4-oxadiazol-5-yl)-methoxy]-phenyl}-(phenyl)-methanone], the melting point was in the range of 87 to 89 °C.
On the same count and under the same terms, then `CCOc1ccc(-c2noc(COc3ccc(Cl)cc3C(=O)c3ccccc3)n2)cc1` [Compound 5e, {5-Chloro-2-[(3-(4-ethoxyphenyl)-1,2,4-oxadiazol-5-yl)-methoxy]-phenyl}-(phenyl)-methanone], with 80 to 82 °C.
Take `O=C(c1ccccc1)c1cc(Cl)ccc1OCc1nc(-c2ccc(F)c(Cl)c2)no1` [Compound 5f, {5-Chloro-2-[(3-(3-chloro-4-fluorophenyl)-1,2,4-oxadiazol-5-yl)-methoxy]-phenyl}-(phenyl)-methanone]: the mortality at 4 µg/mL stood at 98.2 ± 1.22% in data set [1] (setting [2]) and 100 ± 2.01% in data set [1] (setting [3]). Moreover, the “larval mortality rate in 48 hours” value in data set [1] (in 48 hours, unit not given) is recorded as 100.00±2.01.
In the case of `CC(C)c1ccc(-c2noc(COc3ccc(Cl)cc3C(=O)c3ccccc3)n2)cc1` [Compound 5g, {5-Chloro-2-[(3-(4-isopropylphenyl)-1,2,4-oxadiazol-5-yl)-methoxy]-phenyl}-(phenyl)-methanone], the melting point fell in the range of 110 to 112 °C.
Take `Cc1cc(-c2noc(COc3ccc(Cl)cc3C(=O)c3ccccc3)n2)ccc1F` [Compound 5h, {5-Chloro-2-[(3-(4-fluoro-3-methylphenyl)-1,2,4-oxadiazol-5-yl)-methoxy]-phenyl}-(phenyl)-methanone]: the mortality at 4 µg/mL in data set [1] (setting [2]) came to 83.6 ± 2.01%; in data set [1] (setting [3]) it was 86.1 ± 1.95%.
The like results for `COc1cc(-c2noc(COc3ccc(Cl)cc3C(=O)c3ccccc3)n2)ccc1F` [Compound 5i, {5-Chloro-2-[(3-(4-fluoro-3-methoxyphenyl)-1,2,4-oxadiazol-5-yl)-methoxy]-phenyl}-(phenyl)-methanone] were, in that order, 79.5 ± 1.09% and 84.7 ± 1.88%.
